How the values were obtained:
[1] = target: Rabbit Reticulocyte Lysate (eukaryotic protein synthesis); assay: Rabbit reticulocyte lysate luciferase assay (inhibition of eukaryotic protein synthesis); assay type: biochemical; details: class by IC50 or % inhibition @ 1 μM, read-out: Rabbit reticulocyte IC50 (μM/% inhib.)
Summary of the method: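 In vitro translation of luciferase control RNA in nuclease-treated rabbit reticulocyte lysate with amino acid mixture, compounds in 2-fold serial dilution, 90 minutes at 30° C. Luminescence read after luciferase reagent; % inhibition relative to water no-inhibitor controls, with no-RNA background wells.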

E. coli (Ec) = assay: Broth microdilution minimum inhibitory concentration (MIC), CLSI; assay type: cell-based; details: growth medium supplemented with sodium bicarbonate; for MIC: Escherichia coli, read-out: E. coli + bicarb MIC
Summary of the method: (§1)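 Bacteria grown at 35±2 °C to 0.5 McFarland turbidity were added at 5×10^4 CFU/well to triplicate two-fold compound series (8 dilutions). Media were cation-adjusted Mueller-Hinton broth alone or with sodium bicarbonate (6.25 or 25 mM final) or heat-inactivated human serum (0–50%), per modified CLSI method.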

E. faecalis (Ef) = assay: as above; assay type: cell-based; details: growth medium supplemented with sodium bicarbonate; for MIC: Enterococcus faecalis, read-out: Ef + bicarb MIC
Summary of the method: as §1

S. aureus (Sa) = assay: as above; assay type: cell-based; details: growth medium supplemented with sodium bicarbonate; for MIC: Staphylococcus aureus, read-out: Sa + bicarb MIC
Summary of the method: as §1

P. aeruginosa (Pa) = assay: as above; assay type: cell-based; details: growth medium supplemented with sodium bicarbonate; for MIC: Pseudomonas aeruginosa, read-out: Pa MIC + bicarb
Summary of the method: as §1

A. baumannn (Ab) = assay: as above; assay type: cell-based; details: for Ab + bicarb MIC: A. baumannii, growth medium supplemented with sodium bicarbonate; for MIC: Acinetobacter baumannii, read-out: Ab + bicarb MIC
Summary of the method: as §1

[2] = test system: E. coli S30 extract (bacterial protein synthesis); assay: E. coli S30 extract coupled transcription-translation luciferase assay (inhibition of bacterial protein synthesis); assay type: biochemical; details: class by IC50 or % inhibition @ 1 μM, read-out: S30 IC50 (μM/% inhib.)
Summary of the method: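 Coupled transcription-translation in E. coli S30 circular-DNA extract expressing luciferase from pBESTluc, with 8-point 2-fold compound dilutions; 1 hour at 37 °C, stopped at 4 °C. Luminescence read; % inhibition versus no-inhibitor wells, no-DNA wells as background.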

SMILES	IC50 [1] [µM]	E. coli + bicarb MIC (E. coli (Ec))	Ef + bicarb MIC (E. faecalis (Ef))	Sa + bicarb MIC (S. aureus (Sa))	Pa MIC + bicarb (P. aeruginosa (Pa))	Ab + bicarb MIC (A. baumannn (Ab))	IC50 [2] [µM]	MIC (E. coli (Ec)) [µg/mL]	MIC (E. faecalis (Ef)) [µg/mL]	MIC (S. aureus (Sa)) [µg/mL]	MIC (P. aeruginosa (Pa)) [µg/mL]	MIC (A. baumannn (Ab)) [µg/mL]
CC(C)(N)C(=O)N1CCN(C(=O)Nc2ccn(-c3ccc(CN4CCC5(N)CC5C4)cc3)c(=O)n2)CC1 (centres unmarked) [Compound 20]	≥ 1	+++ (An MIC value (μg/mL) that is less than 8 μg/mL)	++ (An MIC value (μg/mL) that is 8 μg/mL or greater and less than 32 μg/mL)	+++ (An MIC value (μg/mL) that is less than 8 μg/mL)	+ (An MIC (μg/mL) value that is 32 μg/mL or greater)	+ (An MIC (μg/mL) value that is 32 μg/mL or greater)	≥ 1	–	–	–	–	–
CC(C)(N)C(=O)N1CCN(C(=O)Nc2ccn(-c3ccc(CN4CCC5(N)CC5C4)cc3)c(=O)n2)CC1 (centres unmarked) [Compound 23]	≥ 1	+++ (An MIC value (μg/mL) that is less than 8 μg/mL)	+++ (An MIC value (μg/mL) that is less than 8 μg/mL)	+++ (An MIC value (μg/mL) that is less than 8 μg/mL)	+ (An MIC (μg/mL) value that is 32 μg/mL or greater)	+ (An MIC (μg/mL) value that is 32 μg/mL or greater)	< 0.5	–	–	–	–	–
C[C@](N)(CO)C(=O)N1CCN(C(=O)Nc2ccn(-c3ccc(CN4C[C@@H]5[C@@H](N)[C@@H]5C4)c(Cl)c3)c(=O)n2)CC1 [Compound 25]	≥ 1	–	–	–	–	–	< 0.5	< 8	> 32	< 8	> 32	> 32
C[C@@H]1CN(C(=O)C(C)(C)N)CCN1C(=O)Nc1ccn(-c2ccc(CN3C[C@@H]4[C@@H](N)[C@@H]4C3)cc2)c(=O)n1 [Compound 28]	≥ 1	–	–	–	–	–	< 0.5	< 8	< 8	< 8	> 32	> 32
CC(C)(N)C(=O)N1CCN(C(=O)Nc2ccn(-c3ccc(CN4CC5CCC(C4)C5N)cc3)c(=O)n2)CC1 (centres unmarked) [Compound 29]	≥ 1	–	–	–	–	–	0.5 to 1	< 8	8 to 32	< 8	> 32	> 32
CC(C)(N)C(=O)N1CCN(C(=O)Nc2ccn(-c3ccc(CN4CC[C@H]5[C@H](N)[C@H]5C4)cc3)c(=O)n2)CC1 [Compound 30]	≥ 1	–	–	–	–	–	< 0.5	< 8	< 8	< 8	8 to 32	8 to 32
CC(C)(N)C(=O)N1CCN(C(=O)Nc2ccn(-c3ccc(CN4CCC5(CC4)CC(N)C5)cc3)c(=O)n2)CC1 [Compound 33]	≥ 1	–	–	–	–	–	< 0.5	< 8	< 8	< 8	8 to 32	8 to 32
CC(C)(N)C(=O)N1CCN(C(=O)Nc2ccn(-c3ccc(CN4CC5(CC(N)C5)C4)cc3)c(=O)n2)CC1 [Compound 34]	≥ 1	–	–	–	–	–	< 0.5	< 8	8 to 32	< 8	> 32	> 32
C[C@@](N)(CO)C(=O)N1CCN(C(=O)Nc2ccn(-c3ccc(CN4C[C@@H]5[C@@H](N)[C@@H]5C4)cc3)c(=O)n2)CC1 [Compound 40]	≥ 1	–	–	–	–	–	< 0.5	< 8	< 8	< 8	> 32	> 32
NCC[C@H](N)C(=O)N1CCN(C(=O)Nc2ccn(-c3ccc(CN4C[C@@H]5[C@@H](N)[C@@H]5C4)cc3)c(=O)n2)CC1 [Compound 41]	≥ 1	–	–	–	–	–	≥ 1	> 32	> 32	> 32	> 32	> 32
CC(C)(N)C(=O)N1CCN(C(=O)Nc2ccn(-c3ccc(CN4CC5CC(N)C5C4)cc3)c(=O)n2)CC1 (centres unmarked) [Compound 42]	≥ 1	–	–	–	–	–	< 0.5	< 8	8 to 32	8 to 32	> 32	> 32
C[C@@H]1CN(C(=O)Nc2ccn(-c3ccc(CN4C[C@@H]5[C@@H](N)[C@@H]5C4)cc3)c(=O)n2)CCN1C(=O)[C@@](C)(N)CO [Compound 45]	≥ 1	–	–	–	–	–	< 0.5	< 8	< 8	< 8	8 to 32	> 32
CC(C)(N)CC1CCN(C(=O)Nc2ccn(-c3ccc(CN4C[C@@H]5[C@@H](N)[C@@H]5C4)cc3)c(=O)n2)CC1 [Compound 48]	≥ 1	–	–	–	–	–	0.5 to 1	< 8	8 to 32	< 8	> 32	> 32
NC1CC2(CCN(C(=O)Nc3ccn(-c4ccc(CN5C[C@@H]6[C@@H](N)[C@@H]6C5)cc4)c(=O)n3)CC2)C1 [Compound 49]	≥ 1	–	–	–	–	–	< 0.5	< 8	8 to 32	< 8	> 32	> 32
COC[C@@](C)(N)C(=O)N1CCN(C(=O)Nc2ccn(-c3ccc(CN4C[C@@H]5[C@@H](N)[C@@H]5C4)cc3)c(=O)n2)CC1 [Compound 53]	≥ 1	–	–	–	–	–	0.5 to 1	< 8	< 8	< 8	> 32	> 32
CC(C)(N)C1CN(C(=O)Nc2ccn(-c3ccc(CN4C[C@@H]5[C@@H](N)[C@@H]5C4)cc3)c(=O)n2)CCO1 (some centres unmarked) [Compound 56]	≥ 1	–	–	–	–	–	≥ 1	8 to 32	> 32	> 32	> 32	> 32
CC(C)(N)C(=O)N1CCN(C(=O)Nc2ccn(-c3ccc(CN4C5CCC4CC(N)C5)cc3)c(=O)n2)CC1 (centres unmarked) [Compound 58]	≥ 1	–	–	–	–	–	< 0.5	< 8	8 to 32	< 8	> 32	> 32
CC(C)(N)C(=O)N1CCN(C(=O)Nc2ccn(-c3ccc(CN4C5CCC4CC(N)C5)cc3)c(=O)n2)CC1 (centres unmarked) [Compound 59]	≥ 1	+++ (An MIC value (μg/mL) that is less than 8 μg/mL)	+++ (An MIC value (μg/mL) that is less than 8 μg/mL)	+++ (An MIC value (μg/mL) that is less than 8 μg/mL)	+ (An MIC (μg/mL) value that is 32 μg/mL or greater)	+ (An MIC (μg/mL) value that is 32 μg/mL or greater)	< 0.5	–	–	–	–	–
CC(C)(N)C(=O)N1CCN(C(=O)Nc2ccn(-c3ccc(CN4CC5(CCC5N)C4)cc3)c(=O)n2)CC1 (centres unmarked) [Compound 60]	≥ 1	–	–	–	–	–	< 0.5	< 8	> 32	< 8	> 32	> 32
N[C@@H]1[C@H]2CN(Cc3ccc(-n4ccc(NC(=O)N5CCC6(CC5)CNC6)nc4=O)cc3)C[C@@H]12 [Compound 61]	≥ 1	–	–	–	–	–	≥ 1	8 to 32	> 32	> 32	> 32	> 32

Source: patent US12692253B2, “Antimicrobial compounds and methods” (Curza Global, LLC, priority 2019, dated 2026)
